In patent US20210254056A1, “IDENTIFICATION AND TARGETED MODULATION OF GENE SIGNALING NETWORKS” (CAMP4 THERAPEUTICS CORPORATION, priority 2017, published 2021):
Structures can show the parent of a compound that is named as a salt.

Test system: hepatocytes
Test: RNA-seq of hepatocytes treated with Phase III failure compounds
Settings: for significant modulation of expression of disease genes: q≤0.05, genes in the value or listed in the block; for significant changes in gene expression: RNA-seq of Table 36, FPKM≥0.5, log 2(fold-change)≥1, q-value≤0.05; for significant modulation of expression of any of the genes analyzed: p≤0.05
Experimental: RNA-seq was performed to determine the effects of the compounds on hepatocytes.
Significance was determined by the criteria of FPKM≥0.5, a log 2(fold-change)≥1, and a […].

COc1cc2nccc(Oc3ccc(NC(=O)Nc4cc(C)on4)c(Cl)c3)c2cc1OC [Tivozanib]
RNA-seq results, CYP2B6 expression: 0.16 | RNA-seq results, CYP2C19 expression: −1.36 | RNA-seq results, CYP2D6 expression: 0.21 | RNA-seq results, CYP3A4 expression: 0.50 | RNA-seq results, CYP7B1 expression: −1.02 | RNA-seq results, CYP39A1 expression: 0.94 | RNA-seq results: CYP2B6 expression: 0.24 | RNA-seq results: CYP2C19 expression: 0.27 | RNA-seq results: CYP2D6 expression: −0.3 | RNA-seq results: CYP3A4 expression: 0.18 | RNA-seq results: CYP7B1 expression: −0.17 | RNA-seq results: CYP39A1 expression: 0.06 | significant modulation of expression of disease genes (RNA-seq, hepatocytes): significantly (q≤0.05) modulate expression | effect on disease gene expression (RNA-seq, hepatocytes): effect on expression of too many disease genes | RNA-seq results: A1BG expression (gene A1BG, hepatocytes): 0.51 | RNA-seq results: AGTR1 expression (gene AGTR1, hepatocytes): −0.47 | RNA-seq results: AGXT expression (gene AGXT, hepatocytes): 0.04 | RNA-seq results: AHI1 expression (gene AHI1, hepatocytes): 0.24 | RNA-seq results: AMPD3 expression (gene AMPD3, hepatocytes): −0.18 | RNA-seq results: AMT expression (gene AMT, hepatocytes): 0.50 | RNA-seq results: ANGPTL3 expression (gene ANGPTL3, hepatocytes): −1.56 | RNA-seq results: ANKS4B expression (gene ANKS4B, hepatocytes): −0.68 | RNA-seq results: ANKS6 expression (gene ANKS6, hepatocytes): −0.21 | RNA-seq results: ANPEP expression (gene ANPEP, hepatocytes): −1.04 | RNA-seq results: AOC2 expression (gene AOC2, hepatocytes): −0.20 | RNA-seq results: APOA2 expression (gene APOA2, hepatocytes): 0.31 | RNA-seq results: APOA5 expression (gene APOA5, hepatocytes): −0.09 | RNA-seq results: APOB expression (gene APOB, hepatocytes): −0.40 | RNA-seq results: COG5 expression (gene COG5, hepatocytes): −0.02 | RNA-seq results: COG6 expression (gene COG6, hepatocytes): −0.09 | RNA-seq results: COL1A1 expression (gene COL1A1, hepatocytes): −0.35 | RNA-seq results: COX6A1 expression (gene COX6A1, hepatocytes): −0.05 | RNA-seq results: CP expression (gene CP, hepatocytes): 0.36 | RNA-seq results: CPS1 expression (gene CPS1, hepatocytes): 0.2 | RNA-seq results: CPT1A expression (gene CPT1A, hepatocytes): 0.08 | RNA-seq results: CPT2 expression (gene CPT2, hepatocytes): 0.07 | RNA-seq results: CROT expression (gene CROT, hepatocytes): −0.02 | RNA-seq results: CSPP1 expression (gene CSPP1, hepatocytes): 0.35 | RNA-seq results: CTC1 expression (gene CTC1, hepatocytes): −0.04 | RNA-seq results: CTDSP2 expression (gene CTDSP2, hepatocytes): 0 | RNA-seq results: CTH expression (gene CTH, hepatocytes): 0.11 | RNA-seq results: CTNS expression (gene CTNS, hepatocytes): −0.16 | RNA-seq results: CTSF expression (gene CTSF, hepatocytes): −0.1 | RNA-seq results: CTSK expression (gene CTSK, hepatocytes): 0.32 | RNA-seq results: CYB5A expression (gene CYB5A, hepatocytes): 0.09 | RNA-seq results: CYB5R3 expression (gene CYB5R3, hepatocytes): −0.25 | RNA-seq results: CYP27A1 expression (gene CYP27A1, hepatocytes): 0.02 | RNA-seq results: DAO expression (gene DAO, hepatocytes): 0.02 | RNA-seq results: DBT expression (gene DBT, hepatocytes): 0.18 | RNA-seq results: DCDC2 expression (gene DCDC2, hepatocytes): 0.25 | RNA-seq results: DCXR expression (gene DCXR, hepatocytes): −0.35 | RNA-seq results: FABP1 expression (gene FABP1, hepatocytes): 0.25 | RNA-seq results: FADD expression (gene FADD, hepatocytes): −0.32 | RNA-seq results: FAM111A expression (gene FAM111A, hepatocytes): 0.18 | RNA-seq results: FAM111B expression (gene FAM111B, hepatocytes): 0.01 | RNA-seq results: FAN1 expression (gene FAN1, hepatocytes): 0.06 | RNA-seq results: FARS2 expression (gene FARS2, hepatocytes): −0.06 | RNA-seq results: FASLG expression (gene FASLG, hepatocytes): −0.16 | RNA-seq results: FGA expression (gene FGA, hepatocytes): 0.15 | RNA-seq results: FGD1 expression (gene FGD1, hepatocytes): −0.42 | RNA-seq results: FGFR2 expression (gene FGFR2, hepatocytes): 0.36 | RNA-seq results: FIG4 expression (gene FIG4, hepatocytes): 0.29 | RNA-seq results: FIS1 expression (gene FIS1, hepatocytes): 0.01 | RNA-seq results: FTCD expression (gene FTCD, hepatocytes): −0.28 | RNA-seq results: FTH1 expression (gene FTH1, hepatocytes): −0.33 | RNA-seq results: FUCA1 expression (gene FUCA1, hepatocytes): 0.06 | RNA-seq results: FXN expression (gene FXN, hepatocytes): −0.37 | RNA-seq results: G6PC3 expression (gene G6PC3, hepatocytes): −0.21 | RNA-seq results: G6PC expression (gene G6PC, hepatocytes): −0.01 | RNA-seq results: G6PD expression (gene G6PD, hepatocytes): −0.09 | RNA-seq results: GALK1 expression (gene GALK1, hepatocytes): −0.45 | RNA-seq results: GALK2 expression (gene GALK2, hepatocytes): −0.06 | RNA-seq results: GALT expression (gene GALT, hepatocytes): 0 | RNA-seq results: GATA6 expression (gene GATA6, hepatocytes): −0.71 | RNA-seq results: GATM expression (gene GATM, hepatocytes): −0.01 | RNA-seq results: GBA expression (gene GBA, hepatocytes): 0.02 | RNA-seq results: GBE1 expression (gene GBE1, hepatocytes): −0.06 | RNA-seq results: GCH1 expression (gene GCH1, hepatocytes): −0.12 | RNA-seq results: GCKR expression (gene GCKR, hepatocytes): 0.14 | RNA-seq results: GCLC expression (gene GCLC, hepatocytes): −0.06 | RNA-seq results: GOSH expression (gene GOSH, hepatocytes): −1.23 | RNA-seq results: RRM2B (gene RRM2B, hepatocytes): −0.32 | RNA-seq results: RSAD1 (gene RSAD1, hepatocytes): 0.01 | RNA-seq results: SAMHD1 (gene SAMHD1, hepatocytes): −1.92 | RNA-seq results: SC5D (gene SC5D, hepatocytes): 0.47 | RNA-seq results: SCARB1 (gene SCARB1, hepatocytes): −0.67 | RNA-seq results: SCN9A (gene SCN9A, hepatocytes): −0.32 | RNA-seq results: SDCCAG8 (gene SDCCAG8, hepatocytes): −0.50 | RNA-seq results: SEPN1 (gene SEPN1, hepatocytes): −1.37 | RNA-seq results: SERAC1 (gene SERAC1, hepatocytes): −0.31 | RNA-seq results: SERPINA1 (gene SERPINA1, hepatocytes): 0.12 | RNA-seq results: SERPING1 (gene SERPING1, hepatocytes): 0.14 | RNA-seq results: SERPINI1 (gene SERPINI1, hepatocytes): −0.06 | RNA-seq results: SETBP1 (gene SETBP1, hepatocytes): −0.38 | RNA-seq results: SFXN4 (gene SFXN4, hepatocytes): 0.25 | RNA-seq results: SLC10A1 (gene SLC10A1, hepatocytes): −0.16 | RNA-seq results: SLC10A3 (gene SLC10A3, hepatocytes): −0.82 | RNA-seq results: SLC10A5 (gene SLC10A5, hepatocytes): −1.06 | RNA-seq results: SLC10A7 (gene SLC10A7, hepatocytes): −0.12 | RNA-seq results: SLC11A2 (gene SLC11A2, hepatocytes): −0.44 | RNA-seq results: SLC19A1 (gene SLC19A1, hepatocytes): −0.33 | RNA-seq results: SLC19A2 (gene SLC19A2, hepatocytes): −0.15 | RNA-seq results: SLC19A3 (gene SLC19A3, hepatocytes): −0.16 | RNA-seq results: SLC22A1 (gene SLC22A1, hepatocytes): 0.24 | RNA-seq results: SLC22A5 (gene SLC22A5, hepatocytes): −0.38 | RNA-seq results: SLC25A1 (gene SLC25A1, hepatocytes): −0.61 | RNA-seq results: SLC25A10 (gene SLC25A10, hepatocytes): −0.64 | RNA-seq results: SLC25A12 (gene SLC25A12, hepatocytes): −0.97 | RNA-seq results: SLC25A13 (gene SLC25A13, hepatocytes): −0.53 | RNA-seq results: SLC25A15 (gene SLC25A15, hepatocytes): −0.18 | RNA-seq results: SLC25A19 (gene SLC25A19, hepatocytes): −0.47 | RNA-seq results: SLC25A20 (gene SLC25A20, hepatocytes): −1.32 | RNA-seq results: SLC25A29 (gene SLC25A29, hepatocytes): −0.54 | RNA-seq results: SLC25A32 (gene SLC25A32, hepatocytes): −0.47

CC(C)(CO)c1cc2cc(NC(=O)C3(c4ccc5c(c4)OC(F)(F)O5)CC3)c(F)cc2n1C[C@@H](O)CO [VX-661 (tezacaptor), tezacaptor]
significant changes in gene expression: not observed to cause any significant changes in gene expression | significant modulation of expression of any of the genes analyzed (RNA-seq, hepatocytes): not observed to significantly modulate expression

Fc1ccc(C(OCCN2CCN(CCCc3ccccc3)CC2)c2ccc(F)cc2)cc1 [Vanoxerine (dihydrochloride), Vanoxerine]
significant modulation of expression of disease genes (RNA-seq, hepatocytes): significantly (q≤0.05) modulate expression of HMOX1 | B2M expression, RNA-seq result (gene B2M, hepatocytes): −0.07 | B9D2 expression, RNA-seq result (gene B9D2, hepatocytes): 0.29 | BAAT expression, RNA-seq result (gene BAAT, hepatocytes): 0.01 | BBOX1 expression, RNA-seq result (gene BBOX1, hepatocytes): 0.01 | BBS10 expression, RNA-seq result (gene BBS10, hepatocytes): −0.41 | BCHE expression, RNA-seq result (gene BCHE, hepatocytes): −0.5 | BCKDHB expression, RNA-seq result (gene BCKDHB, hepatocytes): −0.06 | BCKDK expression, RNA-seq result (gene BCKDK, hepatocytes): 0.02 | BCO1 expression, RNA-seq result (gene BCO1, hepatocytes): 0.08 | BCR expression, RNA-seq result (gene BCR, hepatocytes): 0.04 | BLNK expression, RNA-seq result (gene BLNK, hepatocytes): 0.18 | BLOC1S3 expression, RNA-seq result (gene BLOC1S3, hepatocytes): 0.46 | BMPR1A expression, RNA-seq result (gene BMPR1A, hepatocytes): 0 | BRAF expression, RNA-seq result (gene BRAF, hepatocytes): 0.2 | BSCL2 expression, RNA-seq result (gene BSCL2, hepatocytes): −0.45 | BTD expression, RNA-seq result (gene BTD, hepatocytes): −0.16 | C4A expression, RNA-seq result (gene C4A, hepatocytes): 0.05 | C9 expression, RNA-seq result (gene C9, hepatocytes): −0.2 | C10orf10 expression, RNA-seq result (gene C10orf10, hepatocytes): 0.02 | C10orf11 expression, RNA-seq result (gene C10orf11, hepatocytes): 0.18 | C15orf41 expression, RNA-seq result (gene C15orf41, hepatocytes): 0.13 | CA2 expression, RNA-seq result (gene CA2, hepatocytes): 0.53 | CA5A expression, RNA-seq result (gene CA5A, hepatocytes): 0.24 | CA12 expression, RNA-seq result (gene CA12, hepatocytes): 0.77 | CAV1 expression, RNA-seq result (gene CAV1, hepatocytes): −0.47 | CCND1 expression, RNA-seq result (gene CCND1, hepatocytes): −0.33 | CD46 expression, RNA-seq result (gene CD46, hepatocytes): −0.14 | CD81 expression, RNA-seq result (gene CD81, hepatocytes): 0.3 | CD320 expression, RNA-seq result (gene CD320, hepatocytes): 0.17 | CDAN1 expression, RNA-seq result (gene CDAN1, hepatocytes): 0.25 | CDH1 expression, RNA-seq result (gene CDH1, hepatocytes): −0.29 | CEP19 expression, RNA-seq result (gene CEP19, hepatocytes): −0.07 | CEP83 expression, RNA-seq result (gene CEP83, hepatocytes): −0.12 | CEP164 expression, RNA-seq result (gene CEP164, hepatocytes): 0.12 | CEP290 expression, RNA-seq result (gene CEP290, hepatocytes): −0.14 | CFB expression, RNA-seq result (gene CFB, hepatocytes): 0.02 | CFHR2 expression, RNA-seq result (gene CFHR2, hepatocytes): −0.46 | CHRM3 expression, RNA-seq result (gene CHRM3, hepatocytes): −0.06 | CIDEC expression, RNA-seq result (gene CIDEC, hepatocytes): 0.1 | CLDN1 expression, RNA-seq result (gene CLDN1, hepatocytes): −0.37 | COG1 expression, RNA-seq result (gene COG1, hepatocytes): 0.06

Fc1ccc(C(OCCN2CCN(CCCc3ccccc3)CC2)c2ccc(F)cc2)cc1 [Vanoxerine]
Number (#) of genes having significantly changed expression (RNA-seq, Phase III failure compounds, hepatocytes, significance: FPKM≥0.5, log 2(fold-change)≥1, q-value≥0.05 (so in the source)): 17

COC[C@@H](c1ccc(C(F)(F)F)cc1)N1CCN(C2(C)CCN(C(=O)c3c(C)ncnc3C)CC2)C[C@@H]1C [Vicriviroc (maleate), Vicriviroc]
significant changes in gene expression: not observed to cause any significant changes in gene expression | significant modulation of expression of any of the genes analyzed (RNA-seq, hepatocytes): not observed to significantly modulate expression
